Laboratory results as given in ChEMBL document CHEMBL1151696 (Bioorg Med Chem, 2008).
pEC50, pIC50: −log10 of the molar value. Calls of active or inactive are those of the source. No cut-off for these calls is given here.

Tests used:
Human alphaherpesvirus 1 = assay type: functional, organism-based
Trypanosoma brucei [1] = test: Trypanocidal activity against Trypanosoma brucei 427 blood stream after 48 hrs by hemocytometer; assay type: functional, organism-based; details: Trypanosoma brucei, 427, 48 h
Punta Toro virus = assay type: functional, organism-based
Human respirovirus 3 = assay type: functional, organism-based
Glutamate NMDA receptor [2] = test: (§1) Antagonist activity at NMDA receptor in cerebellar granule neurons assessed as inhibition of NMDA-induced increase in intracellular calcium concentration by fluorometric assay; assay type: functional, cell-based
Feline coronavirus = assay type: functional, organism-based
Rattus norvegicus = organism: Rattus norvegicus; test: Inhibition of [3H]dopamine uptake in Wistar rat striatum synaptosomes at 100 uM by scintillation spectrometry; assay type: functional, subcellular; set-up: scale not given: the % may be the effect or the level left
[3] = system: Mammalian orthoreovirus 1; assay type: functional, organism-based
Glutamate NMDA receptor [4] = test: (§2) Antagonist activity at NMDA receptor in cerebellar granule neurons assessed as inhibition of glutamate-induced increase in intracellular calcium concentration by fluorometric assay; assay type: functional, cell-based
Human alphaherpesvirus 2 = assay type: functional, organism-based
[5] = system: Vesicular stomatitis virus; assay type: functional, organism-based
Sindbis virus = assay type: functional, organism-based
[6] = system: Respiratory syncytial virus; assay type: functional, organism-based
Coxsackievirus B4 = assay type: functional, organism-based
Influenza A virus H3N2 = assay type: functional, organism-based, Influenza A virus (A/Hong Kong/7/1987(H3N2)); details: MDCK
Influenza B virus = assay type: functional, organism-based; details: B/Hong Kong/05/1972, MDCK
Influenza A virus = test: microbe, parasite or virus in culture; details: A/Puerto Rico/8/1934(H1N1), MDCK
[7] = Cytotoxicity against MDCK cells by MTS assay; assay type: cell-based, Canis lupus familiaris; details: dog
Trypanosoma brucei [8] = test: Trypanocidal activity against Trypanosoma brucei 427 blood stream at 5 ug/ml after 48 hrs by hemocytometer; assay type: functional, organism-based
[9] = target: T1, Glutamate NMDA receptor (Rattus norvegicus) (UniProt P35439+Q00959+Q00960+Q00961+Q62645+Q8VHN2+Q9R1M7); test: as §2; assay type: functional, cell-based
[10] = target: T1, Glutamate NMDA receptor (Rattus norvegicus); test: as §1; assay type: functional, cell-based

Row | Compound | Activity (Human alphaherpesvirus 1) | Activity (Punta Toro virus) | Activity (Human respirovirus 3) | pIC50 (Glutamate NMDA receptor [2]) | Activity (Feline coronavirus) | Activity (Rattus norvegicus) [%] | Activity [3] | pIC50 (Glutamate NMDA receptor [4]) | Activity (Human alphaherpesvirus 2) | Activity [5] | Activity (Sindbis virus) | Activity [6] | Activity (Coxsackievirus B4) | further results
1 | CC(N)C12CC3(C)CC1CC3(C)C2 (centres undefined) | inactive | inactive | inactive | 4.43 | inactive | 72.2 | inactive | 4.03 | inactive | inactive | inactive | inactive | inactive | pIC50 (Trypanosoma brucei [1]): 5.22; IC90 (Trypanosoma brucei [1]): 9.48 µM
2 | NC12CC3CC(CC(C3)C1)C2 [AMANTADINE] |  |  |  |  |  | 47.4 |  |  |  |  |  |  |  | pEC50 (Influenza A virus H3N2): 5.57; pIC50 (Trypanosoma brucei [1]): < 3.89; Activity (Influenza B virus): inactive; pEC50 (Influenza A virus): 4.11; MCC [7]: > 100 µM
3 | CN(C)C12CC3(C)CC1CC3(C)C2 | inactive | inactive | inactive | 3.82 | inactive | 75.2 | inactive | 3.73 | inactive | inactive | inactive | inactive | inactive | Activity (Trypanosoma brucei [8]): inactive
4 | NCC12CC3CC(CC1C3)C2 | inactive | inactive | inactive | < 3.70 | inactive | 50.1 | inactive | < 3.70 | inactive | inactive | inactive | inactive | inactive | pEC50 (Influenza A virus H3N2): 4.28; Activity (Influenza B virus): inactive; pEC50 (Influenza A virus): 4.44; MCC [7]: > 530 µM
5 | CC12CC3CC1(C)CC3(CN)C2 | inactive | inactive | inactive | 3.89 | inactive | 39.1 | inactive | < 3.30 | inactive | inactive | inactive | inactive | inactive | Activity (Trypanosoma brucei [8]): inactive
6 | CN(Cc1ccccc1)CC12CC3(C)CC1CC3(C)C2 | inactive | inactive | inactive | 3.80 | inactive |  | inactive |  | inactive | inactive | inactive | inactive | inactive | Activity [9]: inactive
7 | CC12CC3CC1(C)CC3(CNCc1ccccc1)C2 | inactive | inactive | inactive | 4.33 | inactive |  | inactive |  | inactive | inactive | inactive | inactive | inactive | Activity [9]: inactive; Activity (Trypanosoma brucei [8]): inactive
8 | COc1ccc(CNC23CC4CC(CC2C4)C3)cc1 | inactive | inactive | inactive | < 3.70 | inactive | 63.9 | inactive | < 3.70 | inactive | inactive | inactive | inactive | inactive | 
9 | CC12CC3CC1(C)CC3(N(Cc1ccccc1)Cc1ccccc1)C2 | inactive | inactive | inactive |  | inactive | 74.3 | inactive |  | inactive | inactive | inactive | inactive | inactive | Activity [10]: inactive; Activity [9]: inactive
10 | c1ccc(CNC23CC4CC(CC2C4)C3)cc1 | inactive | inactive | inactive | < 3.70 | inactive | 31.7 | inactive | < 3.70 | inactive | inactive | inactive | inactive | inactive | 
11 | CNC12CC3CC(CC1C3)C2 | inactive | inactive | inactive | 4.19 | inactive | 65.2 | inactive | 3.69 | inactive | inactive | inactive | inactive | inactive | 
12 | COc1cccc(CNC23CC4CC(CC2C4)C3)c1 | inactive | inactive | inactive | 4.06 | inactive | 45.8 | inactive | < 3.30 | inactive | inactive | inactive | inactive | inactive | 
13 | NC12CC3CC(CC1C3)C2 |  |  |  | 4.04 |  | 84.9 |  | < 3.30 |  |  |  |  |  | pEC50 (Influenza A virus H3N2): 4.58; Activity (Influenza B virus): inactive; pEC50 (Influenza A virus): 3.71; MCC [7]: > 575 µM
14 | c1csc(CNC23CC4CC(CC2C4)C3)c1 | inactive | inactive | inactive | 4.77 | inactive | 47.7 | inactive | 3.42 | inactive | inactive | inactive | inactive | inactive | 
15 | CN(C)C12CC3CC(CC1C3)C2 | inactive | inactive | inactive | 3.76 | inactive | 71.3 | inactive | < 3.30 | inactive | inactive | inactive | inactive | inactive | 
16 | CN(Cc1ccccc1)C12CC3CC(CC1C3)C2 | inactive | inactive | inactive | 4.44 | inactive | 47.2 | inactive | < 3.30 | inactive | inactive | inactive | inactive | inactive | 
17 | C1CCN(C23CC4CC(CC2C4)C3)CC1 | inactive | inactive | inactive | 4.35 | inactive | 68.5 | inactive | < 3.30 | inactive | inactive | inactive | inactive | inactive | 
18 | CC(N)C12CC3CC(CC(C3)C1)C2 (centres undefined) [RIMANTADINE] |  |  |  |  |  |  |  |  |  |  |  |  |  | pEC50 (Influenza A virus H3N2): 6.07; IC90 (Trypanosoma brucei [1]): 14 µM; Activity (Influenza B virus): inactive; MCC [7]: > 100 µM
